Reference: patent US20170015640A1, “USE OF ARYLALKANOLAMINES AS SIGMA-1 RECEPTOR ANTAGONISTS” (Università degli studi di Pavia, priority 2014, published 2017)

Key:
[1] = In vitro metabolic stability in dog plasma; type: in vitro ADME; conditions: 37° C., FIG. 7(A)
Protocol: (§1) The metabolic stability studies were performed using biological matrices (plasma, blood and S9 fraction of liver) obtained from various animal species.
(§2) The biological matrices and the analysis method were arranged according to the process described by Rossi D. et al. in “Identification of RC-33 as a potent and selective al receptor agonist potentiating NGF-induced neurite outgrowth in PC12 cells. Part 2: g -scale synthesis, physicochemical characterization and in vitro metabolic stability” (Bioorg. Med. Chem. 2013, 21, 2577-2586).
(§3) For each biological matrix, suitable solutions were prepared to perform the test, as described below.
(§4) 10 μL of a stock solution of compound 1 in dimethyl sulfoxide (DMSO) were incubated with each matrix (total reaction volume 1 mL) in a mixer thermostatically maintained at 37° C. for […]. 50 μL aliquots were taken from each reaction mixture and sampled in duplicate at 5, 10, 15, 30, 60, 120 and 240 minutes to determine the reaction kinetics. […] The supernatant was analysed by means of an Acquity Waters ultra-fast liquid chromatography system, interfaced with a photodiode array detector (UPLC/UV/PAD) to obtain the concentration of the test compound at each of the said times. […]
(§5) The results, obtained from three independent experiments and expressed as the mean value ±standard deviation (SD), are given in FIGS. 8 and 9.

[2] = In vitro metabolic stability in S9 fraction of human liver; type: in vitro ADME
Protocol: as §1, §2, §3, §4, §5

[3] = In vitro metabolic stability in human plasma; type: in vitro ADME; conditions: 37° C., FIG. 7(A)
Protocol: as §1, §2, §3, §4, §5

[4] = In vitro metabolic stability in rat plasma; type: in vitro ADME; conditions: 37° C., FIG. 7(A)
Protocol: as §1, §2, §3, §4, §5

[5] = In vitro metabolic stability in S9 fraction of rat liver; type: in vitro ADME
Protocol: as §1, §2, §3, §4, §5

[6] = In vitro metabolic stability, overall conclusion over biological matrices; type: in vitro ADME, various animal species
Protocol: as §1, §2, §3, §4, §5

σ-1 receptors = molecular target: T1, σ-1 receptors (Rattus norvegicus, UniProt Q9R0C9); assay: Growth of NGF-induced neurite outgrowths in PC12 cells (agonist/antagonist profile); type: cell-based; conditions: FIG. 6
T1 construct: performed on rat pheochromocytoma cells (PC12 cells); endogenous in cells; host or cells: PC12 rat pheochromocytoma cells
Protocol: Evaluation of the growth of neurite outgrowths induced by neuronal growth factor (NGF).
Evaluation of the growth of NGF-induced neurite outgrowths was performed on rat pheochromocytoma cells (PC12 cells), conventionally used as a model of neuronal study.
This method constitutes a reliable model for evaluating the agonist/antagonist profile of low molecular weight compounds on the o receptors. In particular, it has been reported that σ-1 agonists potentiate the growth of NGF-induced neurite outgrowths in PC12 cells. In contrast, σ-1 antagonists oppose the action of the agonists, leading to a reduction in NGF-induced growth (Rossi D. et al., “identification of a potent and selective σ1 receptor agonist potentiating NGF-induced neurite outgrowth in PC12 cells”, Bioorg. Med. Chem. 2011, 19, 6210-6224).
The cell culturing PC12 cells, the method for quantifying the growth of neurite outgrowths and the cytotoxicity test were performed as described by Rossi D. et al. in Bioorg. Med. Chem. 2011 cited above.
Statistical analysis of the data obtained was performed using the two-way analysis of variants (ANOVA) method and the Tukey post-hoc test. Values of p<0.05 were considered as being statistically significant.
The results, expressed as the mean value ±standard error of mean (SEM), represent the percentage of cells showing neurite growth. […]

[7] = In vitro metabolic stability in mouse blood; type: in vitro ADME; conditions: 37° C., FIG. 7(B)
Protocol: as §1, §2, §3, §4, §5

σ-1 receptor = σ-1 receptor (Cavia porcellus, UniProt Q60492); assay: biochemical
Excerpt: The IC50 values obtained from three independent experiments were transformed into the respective affinity constants (Ki), using the Cheng-Prusoff equation.

[8] = In vitro metabolic stability in rat blood; type: in vitro ADME; conditions: 37° C., FIG. 7(B)
Protocol: as §1, §2, §3, §4, §5

male ICR mice = assay: Formalin test (animal model of inflammatory pain); type: in vivo, mouse; conditions: intraperitoneal, even at a dose of 1 mg/kg, 30 min before 2% formalin, FIG. 9
Protocol: The formalin test is an animal model of inflammatory pain widely used and known in the literature.
32 male ICR mice weighing 25 grams were divided into 4 groups of 8 mice each.
The vehicle alone, which consisted of a mixture of dimethyl sulfoxide (DMSO), castor oil Cremophor® EL (BASF) and distilled water, in a 10/10/80 ratio, was administered to the control group (CTR).
Compound 1 was dissolved in the same vehicle and administered at the following doses: • group 1, 1 mg/kg; • group 2, 10 mg/kg; and • group 3, 20 mg/kg.
All the administrations took place by intraperitoneal injection. Thirty minutes after the administration, all the mice were subjected to an injection with 20 uL of a 2% formalin solution subcutaneously, into a paw.
The injection of formalin induces a two-phase nociceptive response, in other words, within the first 5-10 minutes of the administration of formalin, the first nociceptive phase is manifested, followed by a phase of quiescence and by the second nociceptive phase which is manifested 20-30 minutes after the administration of formalin.
The nociceptive response was recorded by evaluating the time that each mouse spent licking or biting its paw which received the injection. […]

T1 sequence (Q9R0C9 whole entry): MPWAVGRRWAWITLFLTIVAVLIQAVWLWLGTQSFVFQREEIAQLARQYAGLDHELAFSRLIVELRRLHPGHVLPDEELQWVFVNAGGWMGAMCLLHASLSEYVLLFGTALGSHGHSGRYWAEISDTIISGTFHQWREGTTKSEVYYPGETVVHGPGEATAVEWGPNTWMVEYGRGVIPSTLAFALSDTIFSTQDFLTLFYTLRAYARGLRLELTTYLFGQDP
Chain of σ-1 receptor (Q60492 whole entry): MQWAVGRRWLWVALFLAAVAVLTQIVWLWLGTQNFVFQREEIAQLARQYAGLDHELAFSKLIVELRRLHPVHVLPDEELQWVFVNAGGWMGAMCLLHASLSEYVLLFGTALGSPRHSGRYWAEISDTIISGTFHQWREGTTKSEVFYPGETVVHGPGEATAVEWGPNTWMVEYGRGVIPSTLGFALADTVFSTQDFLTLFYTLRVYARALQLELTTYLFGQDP

Row | SMILES | metabolization in dog plasma [1] | metabolization in S9 fraction of human liver ([2]; absence of NADPH, FIG. 8(A)) | metabolization in S9 fraction of human liver ([2]; presence of NADPH, FIG. 8(B)) | metabolization in human plasma [3] | metabolization in rat plasma [4] | metabolization in S9 fraction of rat liver ([5]; absence of NADPH, FIG. 8(A)) | metabolization in S9 fraction of rat liver ([5]; presence of NADPH, FIG. 8(B)) | in vitro metabolic stability [6] | effect on agonist-potentiated growth of NGF-induced neurite outgrowths (σ-1 receptors; σ-1 agonist plus 2.5 μM of compound (group A)) | metabolization in mouse blood [7] | Ki (σ-1 receptor) [nM] | metabolization in rat blood [8] | reduction of inflammatory pain (time spent licking or biting the paw) (male ICR mice) | percentage of cells with growth of neurite outgrowths (σ-1 receptors; reference group (PRE) relative to control group (NGF))
1 | OCC(CCN1CCCCC1)c1ccc(-c2ccccc2)cc1 (centres unmarked) [Compound 1, 4-(N-piperidinyl)-2-(4-diphenyl)butanol] | insignificant | insignificant | substantial metabolization | insignificant | insignificant | insignificant | substantial metabolization | high | appreciably opposed the effect of the agonist compound | insignificant | 6.2 | insignificant | effective in reducing inflammatory pain | –
2 | Cl.O=C(OCCN1CCOCC1)C1(c2ccccc2)CCCCC1 [PRE, 2-(4-morpholinoethyl)-1-phenylcyclohexanecarboxylate hydrochloride, reference compound] | – | – | – | – | – | – | – | – | – | – | – | – | – | increased significantly
